Active and inactive are the calls of the source. No cut-off for these calls is given here.
Experiments:
Acetylcholinesterase = Acetylcholinesterase (Homo sapiens, UniProt P22303)
Description: Inhibition of recombinant human AChE expressed in HEK293 cells using acetylthiocholine iodide as substrate preincubated for 15 mins followed by substrate addition by Ellman's method

Beta-secretase 1 = Beta-secretase 1 (Homo sapiens, UniProt P56817); assay: Inhibition human BACE1 expressed in baculovirus expression system using Panvera peptide as substrate measured after 60 mins by fluorescence assay; settings: read-out: IC50
Mus musculus [1] = assay: Antialzheimer activity in APP/PS1 double mutant-transgenic C57BL6/J mouse model assessed as increase in SOD2 level at 10 mg/kg/day, ip for 4 weeks followed by compound washout and measured after 24 hrs by double immunostaining assay; format: functional, organism-based
[2] = Acute toxicity in C57BL6/J mouse assessed as tremor at 15 mg/kg, ip measured after 10 to 15 mins; format: organism-based; settings: in vivo, time 10-15 min
[3] = Acute toxicity in C57BL6/J mouse at 15 mg/kg, ip measured after 3 hrs; format: organism-based; settings: in vivo
[4] = Acute toxicity in C57BL6/J mouse assessed as piloerection at 15 mg/kg, ip measured after 10 to 15 mins; format: organism-based; settings: in vivo, time 10-15 min
Mus musculus [5] = assay: Antialzheimer activity in APP/PS1 double mutant-transgenic C57BL6/J mouse model assessed as reduction in Bace1 expression at 10 mg/kg/day, ip for 4 weeks followed by compound washout and measured after 24 hrs by Western blot analysis; format: functional, organism-based
Mus musculus [6] = assay: Antialzheimer activity in APP/PS1 double mutant-transgenic C57BL6/J mouse model assessed as reduction in amyloid beta burden in cortex at 10 mg/kg/day, ip for 4 weeks followed by compound washout and measured after 24 hrs by hematoxylin staining based microscopic analysis; format: functional, organism-based
Mus musculus [7] = assay: Antialzheimer activity in APP/PS1 double mutant-transgenic C57BL6/J mouse model assessed as increase in Nrf2 level at 10 mg/kg/day, ip for 4 weeks followed by compound washout and measured after 24 hrs by Western blot analysis; format: functional, organism-based
Cholinesterase = Cholinesterase (Homo sapiens, UniProt P06276)
Description: Inhibition of recombinant human BChE using butyrylthiocholine iodide as substrate preincubated for 15 mins followed by substrate addition by Ellman's method

Mus musculus [8] = assay: Antialzheimer activity in APP/PS1 double mutant-transgenic C57BL6/J mouse model assessed as reduction in Bace1 gene expression at 10 mg/kg/day, ip for 4 weeks followed by compound washout and measured after 24 hrs by qPCR analysis; format: functional, organism-based
[9] = Acute toxicity in C57BL6/J mouse at 5 to 10 mg/kg, ip measured up to 24 hrs; format: organism-based; settings: in vivo, dose 5-10 mg/kg
Mus musculus [10] = assay: Antialzheimer activity in APP/PS1 double mutant-transgenic C57BL6/J mouse model assessed as increase in Adam10 expression at 10 mg/kg/day, ip for 4 weeks followed by compound washout and measured after 24 hrs by Western blot analysis; format: functional, organism-based
[11] = Acute toxicity in C57BL6/J mouse assessed as reduction in locomotor activity at 15 mg/kg, ip measured after 10 to 15 mins; format: organism-based; settings: in vivo, time 10-15 min
Mus musculus [12] = assay: Improvement in memory impairment in APP/PS1 double mutant-transgenic C57BL6/J mouse model assessed as […] at 10 mg/kg/day, ip for 4 weeks followed by compound washout by maze two-object recognition test; format: functional, organism-based
in vitro = settings: PAMPA
Description: Permeability of compound in PBS/EtOH buffer (7:3) PAMPA-BBB assay

Mus musculus [13] = assay: Antialzheimer activity in APP/PS1 double mutant-transgenic C57BL6/J mouse model assessed as increase in Adam10 gene expression at 10 mg/kg/day, ip for 4 weeks followed by compound washout and measured after 24 hrs by qPCR analysis; format: functional, organism-based
Mus musculus [14] = assay: Antialzheimer activity in APP/PS1 double mutant-transgenic C57BL6/J mouse model assessed as increase in GPX1 level at 10 mg/kg/day, ip for 4 weeks followed by compound washout and measured after 24 hrs by Western blot analysis; format: functional, organism-based
Mus musculus [15] = assay: Antialzheimer activity in APP/PS1 double mutant-transgenic C57BL6/J mouse model assessed as reduction in oxidized protein level at 10 mg/kg/day, ip for 4 weeks followed by compound washout and measured after 24 hrs by Western blot analysis; format: functional, organism-based
Mus musculus [16] = assay: Antialzheimer activity in APP/PS1 double mutant-transgenic C57BL6/J mouse model assessed as reduction in soluble amyloid beta 40 level in cortex at 10 mg/kg/day, ip for 4 weeks followed by compound washout and measured after 24 hrs by ELISA; format: functional, organism-based
[17] = Acute toxicity in C57BL6/J mouse assessed as ptosis at 15 mg/kg, ip measured after 10 to 15 mins; format: organism-based; settings: in vivo, time 10-15 min
Mus musculus [18] = assay: Antialzheimer activity in APP/PS1 double mutant-transgenic C57BL6/J mouse model assessed as reduction in soluble amyloid beta 42 level in cortex at 10 mg/kg/day, ip for 4 weeks followed by compound washout and measured after 24 hrs by ELISA; format: functional, organism-based

Chain of Acetylcholinesterase (P22303 whole entry): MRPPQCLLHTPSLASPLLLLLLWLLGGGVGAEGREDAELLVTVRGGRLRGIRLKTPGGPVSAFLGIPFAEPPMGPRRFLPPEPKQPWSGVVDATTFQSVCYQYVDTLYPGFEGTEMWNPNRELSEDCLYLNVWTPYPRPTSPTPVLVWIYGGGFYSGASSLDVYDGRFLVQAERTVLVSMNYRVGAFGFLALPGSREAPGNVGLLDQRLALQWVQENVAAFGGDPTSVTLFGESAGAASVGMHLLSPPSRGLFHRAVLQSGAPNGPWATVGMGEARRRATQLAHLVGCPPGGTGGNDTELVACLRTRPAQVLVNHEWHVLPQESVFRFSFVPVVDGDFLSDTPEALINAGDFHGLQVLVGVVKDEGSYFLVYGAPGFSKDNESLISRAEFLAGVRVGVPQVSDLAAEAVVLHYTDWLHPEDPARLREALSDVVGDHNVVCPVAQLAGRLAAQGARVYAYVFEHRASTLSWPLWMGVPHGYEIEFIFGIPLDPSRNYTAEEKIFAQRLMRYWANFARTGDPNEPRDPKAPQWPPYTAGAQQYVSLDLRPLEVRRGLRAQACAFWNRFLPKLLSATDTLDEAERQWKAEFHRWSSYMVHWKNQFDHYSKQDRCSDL
Chain of Beta-secretase 1 (P56817 whole entry): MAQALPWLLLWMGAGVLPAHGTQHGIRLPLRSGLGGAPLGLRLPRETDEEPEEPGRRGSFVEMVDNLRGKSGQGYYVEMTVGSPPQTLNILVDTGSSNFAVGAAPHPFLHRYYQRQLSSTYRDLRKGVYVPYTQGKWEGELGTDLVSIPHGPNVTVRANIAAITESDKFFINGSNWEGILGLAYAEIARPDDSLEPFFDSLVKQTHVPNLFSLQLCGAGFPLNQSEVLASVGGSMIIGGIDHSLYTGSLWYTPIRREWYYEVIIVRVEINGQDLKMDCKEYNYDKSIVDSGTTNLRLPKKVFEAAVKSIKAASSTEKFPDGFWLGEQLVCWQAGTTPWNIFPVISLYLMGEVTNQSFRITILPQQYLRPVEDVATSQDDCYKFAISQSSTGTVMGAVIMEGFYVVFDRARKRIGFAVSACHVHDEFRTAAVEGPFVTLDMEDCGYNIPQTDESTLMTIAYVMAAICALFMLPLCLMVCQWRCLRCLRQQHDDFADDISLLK
Chain of Cholinesterase (P06276 whole entry): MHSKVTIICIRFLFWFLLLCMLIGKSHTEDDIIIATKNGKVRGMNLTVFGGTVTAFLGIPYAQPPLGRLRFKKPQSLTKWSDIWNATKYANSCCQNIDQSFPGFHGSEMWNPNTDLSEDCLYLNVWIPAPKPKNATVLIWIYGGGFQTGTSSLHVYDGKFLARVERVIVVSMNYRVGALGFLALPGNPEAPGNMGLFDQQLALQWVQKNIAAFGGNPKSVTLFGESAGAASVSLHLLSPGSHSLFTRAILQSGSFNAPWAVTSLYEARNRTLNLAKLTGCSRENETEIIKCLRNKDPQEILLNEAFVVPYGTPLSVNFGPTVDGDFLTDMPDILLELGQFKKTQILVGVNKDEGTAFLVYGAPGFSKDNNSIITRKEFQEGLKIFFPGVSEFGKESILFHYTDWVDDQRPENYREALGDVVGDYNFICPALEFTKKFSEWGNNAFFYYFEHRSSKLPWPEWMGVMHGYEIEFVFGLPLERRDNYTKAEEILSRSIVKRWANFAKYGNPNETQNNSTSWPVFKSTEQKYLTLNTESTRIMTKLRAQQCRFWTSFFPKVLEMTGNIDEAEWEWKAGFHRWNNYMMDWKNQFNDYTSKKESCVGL

COc1cc2c(cc1OCc1ccccc1)CCC(C)(CC(=O)NCCCCCCCCNc1c3c(nc4cc(Cl)ccc14)CCCC3)O2 (configuration not stated)
IC50 (Acetylcholinesterase): 10.4 nM | IC50 (Beta-secretase 1): 8310 nM | Activity (Mus musculus [1]): inactive | Activity [2]: Toxic | Activity [3]: Non-Toxic | Activity [4]: Toxic | Activity (Mus musculus [5]): inactive | Activity (Mus musculus [6]): inactive | Activity (Mus musculus [7]): inactive | IC50 (Cholinesterase): 100 nM | Activity (Mus musculus [8]): Active | Activity [9]: Non-Toxic | Activity (Mus musculus [10]): Active | Activity [11]: Toxic | Activity (Mus musculus [12]): inactive | Papp (in vitro): 12.3 ×10⁻⁶ cm/s | Activity (Mus musculus [13]): Active | Activity (Mus musculus [14]): inactive | Activity (Mus musculus [15]): inactive | Activity (Mus musculus [16]): inactive | Activity [17]: Toxic | Activity (Mus musculus [18]): inactive
